Biological target: T1, cOpn5L2 (Gallus gallus, UniProt B3XZF6)
T1 construct: N-terminal peptide MEEQYISKLHPVVDY, C-terminal peptide IRLSPTAKVESQGAARH (antigens)
T1 sequence (B3XZF6 1-348): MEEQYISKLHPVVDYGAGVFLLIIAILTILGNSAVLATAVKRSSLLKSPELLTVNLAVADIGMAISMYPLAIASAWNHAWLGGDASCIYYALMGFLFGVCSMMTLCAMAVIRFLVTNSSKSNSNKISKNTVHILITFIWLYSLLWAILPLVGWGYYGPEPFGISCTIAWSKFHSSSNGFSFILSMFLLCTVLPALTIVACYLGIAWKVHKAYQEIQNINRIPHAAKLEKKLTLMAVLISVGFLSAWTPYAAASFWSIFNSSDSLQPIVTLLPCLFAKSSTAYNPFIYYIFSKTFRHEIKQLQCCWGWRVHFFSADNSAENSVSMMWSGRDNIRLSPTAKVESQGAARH
Assay: absorption spectra of purified pigment, HPLC of retinal oximes, GTPgammaS binding Gi activation assay
Conditions: 5 uM retinal added to cell medium, pH 6.5, spectra at 0 C

CC1=C(/C=C/C(C)=C/C=C/C(C)=C/C=O)C(C)(C)CCC1 [all-trans-retinal]
absorption spectra of purified pigment, HPLC of retinal oximes, GTPgammaS bindin (agonist, Gi assay in dark at pH 7.0, 0 C, retinylidene chromophore): all-trans-retinal most likely incorporates directly into cOpn5L2, which results in induction of basal constitutive activity

CC1=C(/C=C/C(C)=C/C=C\C(C)=C\C=O)C(C)(C)CCC1 [11-cis-retinal]
absorption spectra of purified pigment, HPLC of retinal oximes, GTPgammaS bindin (chromophore of UV-absorbing form, UV light converts it to the active all-trans form): absorption spectrum and the light-dependent changes of cOpn5L2 reconstituted with 11-cis-retinal
